Experimental data published in patent US8039614B2, “4' -C-substituted-2-haloadenosine derivative” (Yamasa Corporation, priority 2004, dated 2011).

What was measured:
HIV-1 wild strain (WT) = test: MAGI assay using HeLa CD4/LTR-beta-Gal cells, wild strain; type: cell-based; conditions: Human immunodeficiency virus 1, 48 hours, read-out: Anti-HIV-1wild activity (EC50)
Procedure: (§1) • 1. A test agent (100 μl) is diluted on a 96-well microplate. MT-4 cells infected with HIV-1 (IIIb strain; 100 TCID50) and non-infected MT-4 cells are added to the microplate such that the number of cells in each well becomes 10,000. The cells are cultured at 37° C. for five days. • 2. MTT (20 μl, 7.5 mg/ml) is added to each well, and the cells are further cultured for 2-3 hours. • 3. The cultured medium (120 μl) is sampled, and MTT terminating solution (isopropanol containing 4% Triton X-100 and 0.04N HCl) is added to the sample. The mixture is stirred to dissolve formed formazan. The absorbance at 540 nm of the solution is measured. Since the absorbance is proportional to the number of viable cells, the test agent concentration at which a half value of the absorbance is measured in a test using infected MT-4 cells represents EC50, whereas the test agent concentration at which a half value of the absorbance is measured in a test using non-infected MT-4 cells represents CC50. 2) MAGI Assay Using HeLa CD4/LTR-beta-Gal Cells • 1. HeLa CD4/LTR-beta-Gal cells are added to 96 wells such that the number of cells in each well is 10,000. After 12-24 hours, the culture medium is removed, and a diluted test agent (100 μl) is added. • 2. A variety of HIV strains (wild strain: WT, drug-resistant strain: MDR and M184V; each being equivalent to 50 TCID50) are added, and the cells are further cultured for 48 hours. • 3. The cells are fixed for five minutes using PBS supplemented with 1% formaldehyde and 0.2% glutaraldehyde. • 4. After the fixed cells are washed with PBS three times, the cells are stained with 0.4 mg/ml X-Gal for one hour, and the number of blue-stained cells of each well is counted under a transmission stereoscopic microscope. The test agent concentration at which blue-stained cells decrease to 50% in number represents EC50. <Results> Anti-human-immunodeficiency Virus (HIV) Activity and Cytotoxicity 1) MTT Method Using MT-4 Cells

[1] = tested on: HIV-1 M184V drug-resistant strain; test: MAGI assay using HeLa CD4/LTR-beta-Gal cells, drug-resistant strain M184V; type: cell-based; conditions: Human immunodeficiency virus 1, HeLa, 48 h, read-out: Anti-HIV-1M184V activity (EC50, μM)
Procedure: as §1

[2] = tested on: HIV-1 MDR drug-resistant strain; test: MAGI assay using HeLa CD4/LTR-beta-Gal cells, drug-resistant strain MDR; type: cell-based; conditions: Human immunodeficiency virus 1, HeLa, 48 h, read-out: Anti-HIV-1MDR activity (EC50, μM)
Procedure: as §1

[3] = molecular target: T1, Calf-intestine-derived adenosine deaminase (Bos taurus, UniProt P56658); test: Stability against adenosine deaminase (HPLC); type: in vitro ADME; conditions: 0.01 unit enzyme, 0.5 mM compound, Tris-HCl pH 7.5, 25° C., FIG. 1
T1 construct: Calf-intestine-derived adenosine deaminase; from tissue; host or cells: calf intestine
T1 sequence (P56658 1-363): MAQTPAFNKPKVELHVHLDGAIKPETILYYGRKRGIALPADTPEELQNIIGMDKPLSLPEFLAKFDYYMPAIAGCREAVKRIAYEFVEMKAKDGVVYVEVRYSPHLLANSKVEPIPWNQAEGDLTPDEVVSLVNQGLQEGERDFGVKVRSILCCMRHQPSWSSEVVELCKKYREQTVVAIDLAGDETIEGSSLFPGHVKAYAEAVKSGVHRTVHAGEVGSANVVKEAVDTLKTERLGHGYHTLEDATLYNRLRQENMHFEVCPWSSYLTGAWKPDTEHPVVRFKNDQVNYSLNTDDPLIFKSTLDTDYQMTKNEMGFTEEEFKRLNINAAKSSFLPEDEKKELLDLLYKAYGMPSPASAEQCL
Procedure: <Test Methods> Stability of Compound 4 Against Adenosine Deaminase Calf-intestine-derived adenosine deaminase (0.01 unit) was added to 0.5 ml of 0.5-mM compound 4 (50 mM Tris-HCl buffered solution (pH 7.5)), and the mixture was incubated at 25° C. A 5-μl aliquot of the reaction mixture was removed every 15 minutes, followed by analysis by means of HPLC (high performance liquid chromatography). The peak area of a test drug at reaction time 0 was taken as 100%, and the curve was monitored over time. The HPLC analysis was performed under the following conditions. Column: YMC-Pack ODS-A (250×6.0 mm) Eluent: 15% MeCN-50 mM TEAA Flow rate: 1 mL/min. Temperature: 30° C. Detection: 260 nm

HIV-1 (IIIb strain) = test: MTT method using MT-4 cells infected with HIV-1 (anti-HIV activity); type: cell-based; conditions: for EC50: MT-4 cells infected with HIV-1 IIIb, MTT, five days; for Selectivity Index (CC50/EC50): MT-4 cells
Procedure: (§2) 1) MTT Method Using MT-4 Cells
as §1

[4] = MTT method using non-infected MT-4 cells (cytotoxicity); type: cell-based; conditions: human
Procedure: as §2, §1

[5] = Stability under acidic conditions (HPLC); type: physicochemical; conditions: NaCl/hydrochloric acid test solution, 37° C.
Procedure: <Test Methods> Stability of Compound 4 Under Acidic Conditions
Compound 4 (2.9 mg) or 2′,3′-dideoxyadenosine (ddAdo: 2.4 mg) was dissolved in 10 ml of a 37° C. test solution (which had been prepared by adding 2.0 g of sodium chloride and 7.0 ml of hydrochloric acid into water to make a solution of 1,000 ml), followed by incubation at the same temperature (37° C.).
A 100-μl aliquot of the reaction mixture was removed therefrom and neutralized with aqueous 0.1-N sodium hydroxide solution, followed by analysis of 5 μl by means of HPLC. The HPLC analysis conditions are the same as those employed in Test Example 2.

ICR mice = test: In vivo acute toxicity test in ICR mice; conditions: for Survisors/Total: ICR mice, seven days
Procedure: <Test methods> In vivo Acute Toxicity Test of Compound 4
Groups of ICR mice (6 weeks of age, male), each group consisting of 8 mice, were given a test drug (Compound 4; dissolved or suspended in saline) via oral route or intravenous injection in amounts up to 100 mg/kg. The occurrence of death and body weight of each mouse were monitored for seven days.

non-infected MT-4 cells = test: MTT method using non-infected MT-4 cells (cytotoxicity); type: cell-based; conditions: non-infected MT-4 cells, MTT, five days
Procedure: as §2, §1

[6] = Human immunodeficiency virus 1, MT4, 120 h

## C#C[C@]1(CO)O[C@@H](n2cnc3c(N)nc(Cl)nc32)C[C@@H]1O [Compound 9, 2-chloro-2′-deoxy-4′-C-ethynyladenosine]
HIV-1 wild strain (WT)
  EC50: 1.9 nM
[1]
  EC50: 0.01 µM
[2]
  EC50: 0.0084 µM

## N#C[C@]1(CO)O[C@@H](n2cnc3c(N)nc(F)nc32)C[C@@H]1O [Compound 8, 4′-C-cyano-2′-deoxy-2-fluoroadenosine]
HIV-1 wild strain (WT)
  EC50: 120 nM
[1]
  EC50: 4.8 µM
[2]
  EC50: 0.95 µM

## C#C[C@]1(CO)O[C@@H](n2cnc3c(N)ncnc32)C[C@@H]1O [EdAdo, 2′-deoxy-4′-C-ethynyladenosine, reference compound]
HIV-1 wild strain (WT)
  EC50: 8 nM
[3]
  Deamination by adenosine deaminase: deaminated
[1]
  EC50: 0.047 µM
[2]
  EC50: 0.0062 µM
HIV-1 (IIIb strain); [6]
  EC50: 9.8 nM
HIV-1 (IIIb strain)
  Selectivity Index (CC50/EC50): 1,630
[4]
  CC50 at 5 days: 16000 nM

## C#C[C@]1(CO[PH](=O)O)O[C@@H](n2cnc3c(N)nc(F)nc32)C[C@H]1O [Compound 10, 2′-deoxy-4′-C-ethynyl-2-fluoroadenosine 5′-H-phosphonate]
HIV-1 wild strain (WT)
  EC50: 3.4 nM
[1]
  EC50: 0.062 µM
[2]
  EC50: 0.003 µM

## Nc1ncnc2c1ncn2[C@H]1CC[C@@H](CO)O1 [ddAdo, 2′,3′-dideoxyadenosine, reference compound]
[5]; in about five minutes, FIG. 3
  Fraction degraded under acidic conditions: About 98%

## C#C[C@]1(CO)O[C@@H](n2cnc3c(N)nc(F)nc32)C[C@@H]1O [Compound 4, 2′-deoxy-4′-C-ethynyl-2-fluoroadenosine]
HIV-1 wild strain (WT)
  EC50: 0.2 nM
[3]
  Deamination by adenosine deaminase: not at all deaminated
[5]; FIG. 2
  Degradation under acidic conditions: degraded very slowly
[1]
  EC50: 0.00311 µM
ICR mice; Intravenous, 1 mg/kg single dose
  Survisors/Total: 8/8
ICR mice; Intravenous, 3 mg/kg single dose
  Survisors/Total: 8/8
ICR mice; Intravenous, 10 mg/kg single dose
  Survisors/Total: 8/8
ICR mice; Intravenous, 30 mg/kg single dose
  Survisors/Total: 8/8
ICR mice; Intravenous, 100 mg/kg single dose
  Survisors/Total: 8/8
ICR mice; Oral, 1 mg/kg single dose
  Survisors/Total: 8/8
ICR mice; Oral, 3 mg/kg single dose
  Survisors/Total: 8/8
ICR mice; Oral, 10 mg/kg single dose
  Survisors/Total: 8/8
ICR mice; Oral, 30 mg/kg single dose
  Survisors/Total: 8/8
ICR mice; Oral, 100 mg/kg single dose
  Survisors/Total: 8/8
ICR mice; mouse, in vivo
  Acute toxicity in mice (conclusion): does not exhibit acute toxicity
  Survival of mice: survived
  Weight loss and pathological symptoms such as diarrhea: not observed
[2]
  EC50: 0.000145 µM
HIV-1 (IIIb strain); [6]
  EC50: 0.068 nM
HIV-1 (IIIb strain)
  Selectivity Index (CC50/EC50): 110,000
[4]
  CC50 at 5 days: 7500 nM

## C#C[C@]1(CO)O[C@@H](n2cnc3c(N)nc(N)nc32)C[C@@H]1O [EdDAP, 9-(4-C-ethynyl-2-deoxy-ribopentofuranosyl)-2,6-diaminopurine]
HIV-1 (IIIb strain)
  EC50: 0.34 nM
non-infected MT-4 cells
  CC50: 900 nM

## C#C[C@@]1(CO)C=C[C@H](n2cnc3c(N)nc(F)nc32)O1 [Compound 13, 2′,3′-didehydro-2′,3′-dideoxy-4′-C-ethynyl-2-fluoroadenosine]
HIV-1 wild strain (WT)
  EC50: 800 nM
[1]
  EC50: 1.8 µM
[2]
  EC50: 0.15 µM
